Biological target: G2019S LRRK2 (Homo sapiens, UniProt Q5S007, G2019S)
Test: DiscoveRx KINOMEscan binding constant (Kd)
Parameters: purchased DiscoveRx (KINOMEscan service); host or cells: E. coli BL21-derived host (T7 phage) or HEK-293
Settings: class symbol
Procedure: Compounds of formulas (II), (I), (I-A), (I-B), (I-C), (I-D), (I-D-1), (I-D-2), (I-E), (I-F), (I-G), (I-H), (I-I), (I-I-1), (I-I-2), (I-J), (I-K), (I-L), (I-M), (I-N), (I-Z-1), (I-Z-2), (I-Z-2-a), (I-Z-2-b), (I-Z-2-c), (I-Z-2-d), (I-Z-3-a), (I-Z-3-b), (I-Z-3-c), or (I-Z-3-d) were tested using DiscoveRx's KINOMEscan™ technology to measure a binding constant (Kd) to wild type and G2019S LRRK2. Kinase-tagged T7 phage strains were prepared in an E. coli host derived from the BL21 strain. E. coli were grown to log-phase and infected with T7 phage and incubated with shaking at 32° C. until lysis. The lysates were centrifuged and filtered to remove cell debris. The remaining kinases were produced in HEK-293 cells and subsequently tagged with DNA for qPCR detection. Streptavidin-coated magnetic beads were treated with biotinylated small molecule ligands for 30 minutes at room temperature to generate affinity resins for kinase assays. The liganded beads were blocked with excess biotin and washed with blocking buffer (SeaBlock (Pierce), 1% BSA, 0.05% Tween 20, 1 mM DTT) to remove unbound ligand and to reduce non-specific binding. Binding reactions were assembled by combining kinases, liganded affinity beads, and test compounds in 1× binding buffer (20% SeaBlock, 0.17×PBS, 0.05% Tween 20, 6 mM DTT). All reactions were performed in polystyrene 96-well plates in a final volume of 0.135 ml. The assay plates were incubated at room temperature with shaking for 1 hour and the affinity beads were washed with wash buffer (lx PBS, 0.05% Tween 20). The beads were then re-suspended in elution buffer (lx PBS, 0.05% Tween 20, 0.5 μM non-biotinylated affinity ligand) and incubated at room temperature with shaking for 30 minutes. The kinase concentration in the eluates was measured by qPCR. An 11-point 3-fold serial dilution of each test compound was prepared in 100% DMSO at 100× final test concentration and subsequently diluted to 1× in the assay (final DMSO concentration=[…]). Most Kds were determined using a compound top concentration=30,000 nM.

Sequence of G2019S LRRK2 (Q5S007 whole entry G2019S): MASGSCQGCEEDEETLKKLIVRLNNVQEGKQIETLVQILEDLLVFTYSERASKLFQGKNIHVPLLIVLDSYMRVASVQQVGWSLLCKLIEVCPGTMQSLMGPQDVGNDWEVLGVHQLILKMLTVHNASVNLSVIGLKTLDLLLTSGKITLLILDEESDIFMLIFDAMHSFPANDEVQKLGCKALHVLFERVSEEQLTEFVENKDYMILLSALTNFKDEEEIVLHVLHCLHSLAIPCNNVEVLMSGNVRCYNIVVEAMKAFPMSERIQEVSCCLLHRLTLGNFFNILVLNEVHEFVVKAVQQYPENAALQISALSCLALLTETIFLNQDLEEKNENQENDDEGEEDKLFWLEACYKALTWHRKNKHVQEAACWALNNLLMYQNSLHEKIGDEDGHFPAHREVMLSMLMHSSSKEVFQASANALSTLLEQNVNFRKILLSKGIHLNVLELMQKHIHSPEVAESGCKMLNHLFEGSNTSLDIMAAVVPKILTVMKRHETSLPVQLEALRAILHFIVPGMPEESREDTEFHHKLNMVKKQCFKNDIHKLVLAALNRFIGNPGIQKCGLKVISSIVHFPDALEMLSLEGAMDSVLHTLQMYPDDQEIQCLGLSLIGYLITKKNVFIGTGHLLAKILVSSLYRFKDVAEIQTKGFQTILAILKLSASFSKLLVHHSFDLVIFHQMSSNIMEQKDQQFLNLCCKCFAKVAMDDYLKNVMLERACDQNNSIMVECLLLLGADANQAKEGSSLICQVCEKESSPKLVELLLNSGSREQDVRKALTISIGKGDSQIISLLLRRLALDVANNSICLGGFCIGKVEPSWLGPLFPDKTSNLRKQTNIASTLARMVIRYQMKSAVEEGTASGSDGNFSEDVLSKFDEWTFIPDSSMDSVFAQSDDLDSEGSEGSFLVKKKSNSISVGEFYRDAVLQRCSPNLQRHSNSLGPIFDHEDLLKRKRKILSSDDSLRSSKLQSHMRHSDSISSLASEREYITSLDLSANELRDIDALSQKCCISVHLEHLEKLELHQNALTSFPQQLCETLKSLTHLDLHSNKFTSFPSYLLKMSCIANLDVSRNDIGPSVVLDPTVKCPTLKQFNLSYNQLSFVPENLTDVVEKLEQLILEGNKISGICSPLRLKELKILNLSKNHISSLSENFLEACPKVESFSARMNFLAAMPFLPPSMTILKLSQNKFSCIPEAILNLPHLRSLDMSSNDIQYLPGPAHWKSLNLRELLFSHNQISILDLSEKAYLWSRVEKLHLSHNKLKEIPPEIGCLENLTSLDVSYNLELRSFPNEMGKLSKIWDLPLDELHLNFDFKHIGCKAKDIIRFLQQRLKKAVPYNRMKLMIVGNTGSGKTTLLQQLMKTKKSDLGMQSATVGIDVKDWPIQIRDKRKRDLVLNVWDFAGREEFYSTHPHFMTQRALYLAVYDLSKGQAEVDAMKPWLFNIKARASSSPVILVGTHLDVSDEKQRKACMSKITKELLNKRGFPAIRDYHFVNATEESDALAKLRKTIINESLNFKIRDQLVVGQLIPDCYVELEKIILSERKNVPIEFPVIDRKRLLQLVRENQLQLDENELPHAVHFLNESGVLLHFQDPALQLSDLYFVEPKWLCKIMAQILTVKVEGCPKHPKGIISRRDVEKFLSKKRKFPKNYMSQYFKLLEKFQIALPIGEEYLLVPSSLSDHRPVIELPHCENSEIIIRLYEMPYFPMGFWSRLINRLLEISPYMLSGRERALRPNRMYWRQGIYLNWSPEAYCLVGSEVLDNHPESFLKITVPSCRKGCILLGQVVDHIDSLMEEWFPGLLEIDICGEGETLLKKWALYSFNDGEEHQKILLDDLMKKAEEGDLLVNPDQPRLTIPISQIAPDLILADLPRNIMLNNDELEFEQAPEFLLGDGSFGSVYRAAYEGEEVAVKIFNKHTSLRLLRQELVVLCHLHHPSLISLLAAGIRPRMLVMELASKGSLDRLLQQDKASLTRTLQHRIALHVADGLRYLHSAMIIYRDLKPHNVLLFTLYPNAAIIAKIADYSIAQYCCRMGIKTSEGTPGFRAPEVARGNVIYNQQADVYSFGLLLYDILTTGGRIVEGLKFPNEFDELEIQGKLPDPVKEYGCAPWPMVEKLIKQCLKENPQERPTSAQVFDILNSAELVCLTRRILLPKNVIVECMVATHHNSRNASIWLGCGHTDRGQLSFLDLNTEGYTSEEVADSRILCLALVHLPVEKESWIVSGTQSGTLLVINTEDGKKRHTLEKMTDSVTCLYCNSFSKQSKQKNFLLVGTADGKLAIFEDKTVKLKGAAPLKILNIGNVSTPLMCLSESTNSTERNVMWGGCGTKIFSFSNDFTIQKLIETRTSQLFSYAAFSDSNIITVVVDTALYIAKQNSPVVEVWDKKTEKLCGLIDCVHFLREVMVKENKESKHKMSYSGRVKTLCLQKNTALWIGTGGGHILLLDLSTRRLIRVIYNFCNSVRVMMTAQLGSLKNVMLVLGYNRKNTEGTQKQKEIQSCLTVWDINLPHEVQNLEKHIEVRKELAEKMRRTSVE

| Kd | Structure (SMILES) |
| --- | --- |
| ≥ 1000 nM | CCc1nnc(/C=C2\C(=O)Nc3ccc(OC)cc32)[nH]1 [Compound 25, (3Z)-3-[(5-ethyl-4H-1,2,4-triazol-3-yl)methylene]-5-methoxy-indolin-2-one] |
| ≥ 1000 nM | CC(C)Oc1ccc2c(c1F)/C(=C/c1cnc(N3CCOCC3)[nH]1)C(=O)N2 [Compound 38, (3Z)-4-fluoro-5-isopropoxy-3-[(2-morpholino-1H-imidazol-5-yl)methylene]indolin-2-one] |

Same assay, conditions: numeric value

| Structure (SMILES) | Kd |
| --- | --- |
| COc1ccc2c(c1)/C(=C/c1cnc(-c3c(F)cccc3F)[nH]1)C(=O)N2 [Compound 20, (3Z)-3-[[2-(2,6-difluorophenyl)-1H-imidazol-5-yl]methylene]-5-methoxy-indolin-2-one] | 150 nM |
| CC(C)Oc1ccc2c(c1)/C(=C/c1cnc(C(C)C)[nH]1)C(=O)N2 [Compound 21, (3Z)-5-isopropoxy-3-[(2-isopropyl-1H-imidazol-5-yl)methylene]indolin-2-one] | 16.5 nM |
| CC(C)Cc1ncc(/C=C2\C(=O)Nc3ccc(OC(C)C)cc32)[nH]1 [Compound 22, (3Z)-3-[(2-isobutyl-1H-imidazol-5-yl)methylene]-5-isopropoxy-indolin-2-one] | 32.5 nM |
| CC(C)Oc1ccc2c(c1)/C(=C/c1cnc(CN3CCOCC3)[nH]1)C(=O)N2 [Compound 23, (3Z)-5-isopropoxy-3-[[2-(morpholinomethyl)-1H-imidazol-5-yl]methylene]indolin-2-one] | 420 nM |
| COCCc1ncc(/C=C2\C(=O)Nc3ccc(OC)cc32)[nH]1 [Compound 24, (3Z)-5-methoxy-3-[[2-(2-methoxyethyl)-1H-imidazol-5-yl]methylene]indolin-2-one] | 450 nM |
| CCc1nnc(/C=C2\C(=O)Nc3ccc(OC)cc32)[nH]1 [Compound 25, (3Z)-3-[(5-ethyl-4H-1,2,4-triazol-3-yl)methylene]-5-methoxy-indolin-2-one] | > 30000 nM |
| CC(C)Oc1ccc2c(c1)/C(=C/c1nnc(C(C)C)[nH]1)C(=O)N2 [Compound 26, (3Z)-5-isopropoxy-3-[(5-isopropyl-4H-1,2,4-triazol-3-yl)methylene]indolin-2-one] | 12500 nM |
| CC(C)Oc1ccc2c(c1)/C(=C/c1cnc(N3CCOCC3)[nH]1)C(=O)N2 [Compound 27, (3Z)-5-isopropoxy-3-[(2-morpholino-1H-imidazol-5-yl)methylene]indolin-2-one] | 15.5 nM |
| CC(C)Oc1ccc2c(c1)/C(=C/c1cnc(C3CCN(CCF)CC3)[nH]1)C(=O)N2 [Compound 31, (3Z)-3-[[2-[1-(2-fluoroethyl)-4-piperidyl]-1H-imidazol-5-yl]methylene]-5-isopropoxy-indolin-2-one] | 43 nM |
| CC(C)Oc1ccc2c(c1)/C(=C/c1cnc(N(C)C)[nH]1)C(=O)N2 [Compound 35, (3Z)-3-[[2-(dimethylamino)-1H-imidazol-5-yl]methylene]-5-isopropoxy-indolin-2-one] | 32 nM |
| CC(C)Oc1cc(F)c2c(c1)/C(=C/c1cnc(N3CCOCC3)[nH]1)C(=O)N2 [Compound 36, (3Z)-7-fluoro-5-isopropoxy-3-[(2-morpholino-1H-imidazol-5-yl)methylene]indolin-2-one] | 67 nM |
| CC(C)Oc1cc2c(cc1F)NC(=O)/C2=C\c1cnc(N2CCOCC2)[nH]1 [Compound 37, (3Z)-6-fluoro-5-isopropoxy-3-[(2-morpholino-1H-imidazol-5-yl)methylene]indolin-2-one] | 24 nM |
| C/C(=C1/C(=O)Nc2ccc(OC(C)C)cc21)c1cnc(N2CCOCC2)[nH]1 [Compound 40, (3Z)-5-isopropoxy-3-[1-(2-morpholino-1H-imidazol-5-yl)ethylidene]indolin-2-one] | 22 nM |
| C/C(=C1/C(=O)Nc2cc(F)c(OC(C)C)cc21)c1cnc(N2CCOCC2)[nH]1 [Compound 42, (3Z)-6-fluoro-5-isopropoxy-3-[1-(2-morpholino-1H-imidazol-5-yl)ethylidene]indolin-2-one] | 57 nM |
| CC(C)Oc1cc2c(cc1F)NC(=O)/C2=C\c1cnc(C2CCN(CCF)CC2)[nH]1 [Compound 43, (3Z)-6-fluoro-3-[[2-[1-(2-fluoroethyl)-4-piperidyl]-1H-imidazol-5-yl]methylene]-5-isopropoxy-indolin-2-one] | 34 nM |
| CCN1CCN(c2ncc(/C=C3\C(=O)Nc4cc(F)c(OC(C)C)cc43)[nH]2)CC1 [Compound 44, (3Z)-3-[[2-(4-ethylpiperazin-1-yl)-1H-imidazol-5-yl]methylene]-6-fluoro-5-isopropoxy-indolin-2-one] | 41 nM |

Now from value to molecule:

| Kd | Structure (SMILES) |
| --- | --- |
| 68 nM | O=C1Nc2ccc(O)cc2/C1=C/c1cnc(C2CCOCC2)[nH]1 [Compound 28, (3Z)-5-hydroxy-3-[(2-tetrahydropyran-4-yl-1H-imidazol-5-yl)methylene]indolin-2-one] |
| 54 nM | CCc1ccc2c(c1)/C(=C/c1cnc(C3CCOCC3)[nH]1)C(=O)N2 [Compound 29, (3Z)-5-ethyl-3-[(2-tetrahydropyran-4-yl-1H-imidazol-5-yl)methylene]indolin-2-one] |
| 28 nM | CC(C)Oc1ccc2c(c1)/C(=C/c1cnc(C3CCOCC3)[nH]1)C(=O)N2 [Compound 30, (3Z)-5-isopropoxy-3-[(2-tetrahydropyran-4-yl-1H-imidazol-5-yl)methylene]indolin-2-one] |
| 59 nM | O=C1Nc2ccc(Cl)cc2/C1=C/c1cnc(C2CCOCC2)[nH]1 [Compound 32, (3Z)-5-chloro-3-[(2-tetrahydropyran-4-yl-1H-imidazol-5-yl)methylene]indolin-2-one] |
| 150 nM | O=C1Nc2ccc(Cl)cc2/C1=C/c1cnc(C2CCN(CCF)CC2)[nH]1 [Compound 33, (3Z)-5-chloro-3-[[2-[1-(2-fluoroethyl)-4-piperidyl]-1H-imidazol-5-yl]methylene]indolin-2-one] |
| 47.5 nM | O=C1Nc2ccc(OCCF)cc2/C1=C/c1cnc(C2CCOCC2)[nH]1 [Compound 34, (3Z)-5-(2-fluoroethoxy)-3-[(2-tetrahydropyran-4-yl-1H-imidazol-5-yl)methylene]indolin-2-one] |
| 123 nM | CC(C)Oc1ccc2c(c1)/C(=C/c1ncc(C3CCOCC3)[nH]1)C(=O)N2 [Compound 39, (3Z)-5-isopropoxy-3-[(5-tetrahydropyran-4-yl-1H-imidazol-2-yl)methylene]indolin-2-one] |
| 25 nM | CC(C)Oc1cc2c(cc1F)NC(=O)/C2=C\c1cnc(C2CCOCC2)[nH]1 [Compound 41, (3Z)-6-fluoro-5-isopropoxy-3-[(2-tetrahydropyran-4-yl-1H-imidazol-5-yl)methylene]indolin-2-one] |
| 260 nM | CC(C)Oc1cc2c(cn1)NC(=O)/C2=C\c1cnc(C2CCOCC2)[nH]1 [Compound 45, (3Z)-5-isopropoxy-3-[(2-tetrahydropyran-4-yl-1H-imidazol-5-yl)methylene]-1H-pyrrolo[2,3-c]pyridin-2-one] |
| 250 nM | CC(C)Oc1ccc2c(n1)/C(=C/c1cnc(C3CCOCC3)[nH]1)C(=O)N2 [Compound 46, (3Z)-5-isopropoxy-3-[(2-tetrahydropyran-4-yl-1H-imidazol-5-yl)methylene]-1H-pyrrolo[3,2-b]pyridin-2-one] |
